Assay results reported in patent US9969726B2, “Metabotropic glutamate receptor negative allosteric modulators (NAMS) and uses thereof” (Sanford-Burnham Medical Research Institute, priority 2014, dated 2018).
Like-named read-outs stand apart in the source and are kept apart here.

Key:
rat mGlu2 receptor = rat mGlu2 receptor (Rattus norvegicus (Rat), UniProt P31421); test: mGlu2 in vitro GIRK thallium flux assay; type: cell-based; settings: NAM, EC80 glutamate, HEK-293 GIRK cells
Outline: (§1)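 Cells expressing rat mGlu2 or mGlu3 with GIRK, plated overnight at 37 °C. Test compounds (0.3% DMSO, 10-point 1:3 series) preincubated 2.5 or 60 min, then thallium buffer plus EC80 glutamate added. Fluorescence slope 5–15 s after addition, normalised to vehicle and maximal agonist, fitted by four-parameter logistic.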

rat mGlu3 receptor = rat mGlu3 receptor (Rattus norvegicus (Rat), UniProt P31422); test: mGlu3 in vitro GIRK thallium flux assay; type: cell-based; settings: NAM; 2.5 min compound incubation; EC80 glutamate; HEK-293 GIRK cells
Outline: as §1

[1] = 2.5 min compound incubation, read-out: mGlu2 EC50 (μM) (2.5 min)
[2] = read-out: mGlu2 EC50 (μM) (60 min), 60 min compound incubation
[3] = mGlu2 EC50 (μM) (60 min), 60 min compound incubation

Chain of rat mGlu2 receptor (P31421 19-872): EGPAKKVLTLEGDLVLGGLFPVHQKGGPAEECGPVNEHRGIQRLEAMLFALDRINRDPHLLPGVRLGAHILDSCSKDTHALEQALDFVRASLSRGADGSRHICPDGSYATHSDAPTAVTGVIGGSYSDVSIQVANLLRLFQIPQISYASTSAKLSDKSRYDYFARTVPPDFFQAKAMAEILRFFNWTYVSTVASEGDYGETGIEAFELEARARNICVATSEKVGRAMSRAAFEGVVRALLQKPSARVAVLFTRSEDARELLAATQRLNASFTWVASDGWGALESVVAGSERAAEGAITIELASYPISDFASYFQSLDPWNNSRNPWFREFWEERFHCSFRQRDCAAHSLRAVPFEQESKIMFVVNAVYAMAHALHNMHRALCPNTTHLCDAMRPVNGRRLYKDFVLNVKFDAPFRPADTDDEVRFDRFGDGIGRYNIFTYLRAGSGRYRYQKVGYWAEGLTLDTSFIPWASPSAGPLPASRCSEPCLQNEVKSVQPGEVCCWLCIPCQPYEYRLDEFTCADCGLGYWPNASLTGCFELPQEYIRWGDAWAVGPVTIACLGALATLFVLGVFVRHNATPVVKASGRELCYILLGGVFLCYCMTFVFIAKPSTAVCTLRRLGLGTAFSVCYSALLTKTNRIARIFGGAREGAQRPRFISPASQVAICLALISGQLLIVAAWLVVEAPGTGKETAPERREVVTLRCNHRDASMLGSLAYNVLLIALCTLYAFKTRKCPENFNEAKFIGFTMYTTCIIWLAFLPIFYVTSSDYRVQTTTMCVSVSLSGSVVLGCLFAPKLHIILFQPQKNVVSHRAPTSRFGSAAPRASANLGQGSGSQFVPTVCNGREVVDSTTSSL
Chain of rat mGlu3 receptor (P31422 23-879): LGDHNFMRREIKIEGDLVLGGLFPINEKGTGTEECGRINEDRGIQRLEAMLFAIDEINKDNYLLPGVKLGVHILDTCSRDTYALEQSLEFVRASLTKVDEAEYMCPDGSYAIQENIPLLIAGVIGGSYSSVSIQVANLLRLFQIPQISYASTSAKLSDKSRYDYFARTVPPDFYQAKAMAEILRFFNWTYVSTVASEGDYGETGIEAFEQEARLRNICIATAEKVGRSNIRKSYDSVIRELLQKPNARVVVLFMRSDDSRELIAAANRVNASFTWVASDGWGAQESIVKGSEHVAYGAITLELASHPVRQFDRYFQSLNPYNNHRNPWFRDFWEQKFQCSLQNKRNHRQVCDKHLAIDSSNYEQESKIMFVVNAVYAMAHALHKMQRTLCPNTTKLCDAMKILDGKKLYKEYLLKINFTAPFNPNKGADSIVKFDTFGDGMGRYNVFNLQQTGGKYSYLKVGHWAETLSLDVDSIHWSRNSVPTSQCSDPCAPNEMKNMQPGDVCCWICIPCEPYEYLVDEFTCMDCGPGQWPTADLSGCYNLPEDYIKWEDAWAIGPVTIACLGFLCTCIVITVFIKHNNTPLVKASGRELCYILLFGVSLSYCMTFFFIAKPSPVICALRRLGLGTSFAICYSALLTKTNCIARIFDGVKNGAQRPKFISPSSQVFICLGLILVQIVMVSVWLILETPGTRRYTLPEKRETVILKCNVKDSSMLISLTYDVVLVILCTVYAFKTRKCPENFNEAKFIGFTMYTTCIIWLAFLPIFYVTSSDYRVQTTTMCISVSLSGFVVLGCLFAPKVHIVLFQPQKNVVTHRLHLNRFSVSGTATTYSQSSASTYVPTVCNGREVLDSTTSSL

Row | Compound | EC50 (rat mGlu2 receptor; [1]) [µM] | EC50 (rat mGlu2 receptor; [2]) [µM] | EC50 (rat mGlu3 receptor) [µM] | EC50 (rat mGlu2 receptor; [3]) [µM]
1 | O=C(O)c1cc(-c2cccc(-c3nc(-c4ccc(C(F)(F)F)nc4)cc(C(F)(F)F)n3)c2)cc([N+](=O)[O-])c1 [Example 75, 5-Nitro-3′-(4-(trifluoromethyl)-6-(6-(trifluoromethyl)pyridin-3-yl)pyrimidin-2-yl)biphenyl-3-carboxylic Acid] | 1.27 | 0.5 | > 10 | 
2 | N#Cc1cc(C2=Nc3ccc(Cl)cc3NC(=O)C2)ccn1 [Example 181, 4-(8-Chloro-2-oxo-2,3-dihydro-1H-benzo[b][1,4]diazepin-4-yl)picolinonitrile] | > 10 |  | > 10 | 
3 | O=C(O)c1ccc(F)c(-c2cccc(-c3nc(-c4ccccc4)n(-c4ccccc4)n3)c2)c1 [Example 63, 3′-(1,5-Diphenyl-1H-1,2,4-triazol-3-yl)-6-fluoro-[1,1′-biphenyl]-3-carboxylic acid] | > 10 |  | 4.45 | > 10
4 | O=C(O)c1cc(-c2cccc(-c3csc(-c4ccccc4)c3)c2)ccc1F [Example 45, 4-Fluoro-3′-(5-phenylthiophen-3-yl)-[1,1′-biphenyl]-3-carboxylic Acid] | > 10 |  | > 10 | > 10
5 | O=C(O)c1cccc(-c2cccc(-c3n[nH]c(-c4ccccc4)n3)c2)c1 [Example 65, 3′-(5-Phenyl-1H-1,2,4-triazol-3-yl)-[1,1′-biphenyl]-3-carboxylic Acid] | > 10 |  | > 30 | > 30
6 | O=C(O)c1cc(-c2cccc(-c3csc(-c4cccs4)n3)c2)ccc1F [Example 15, 4-Fluoro-3′-(2-(thiophen-2-yl)thiazol-4-yl)biphenyl-3-carboxylic Acid] | 1.5 |  | > 10 | 0.93
7 | O=C(O)c1cccc(-c2cccc(-c3nc(-c4ccc(C(F)(F)F)nc4)n(-c4ccccc4)n3)c2)c1 [Example 58, 3′-(1-Phenyl-5-(6-(trifluoromethyl)pyridin-3-yl)-1H-1,2,4-triazol-3-yl)-[1,1′-biphenyl]-3-carboxylic Acid] | > 10 |  | 5.56 | > 10
8 | O=C(O)c1cccc(-c2cccc(-c3coc(-c4ccccc4)c3)c2)c1 [Example 46, 3′-(5-phenylfuran-3-yl)biphenyl-3-carboxylic Acid] | > 10 |  | > 30 | > 10
9 | O=C(O)c1ccc(F)c(-c2cccc(-c3nsc(-c4ccccc4)n3)c2)c1 [Example 41, 6-Fluoro-3′-(5-phenyl-1,2,4-thiadiazol-3-yl)biphenyl-3-carboxylic Acid] | 0.89 |  | > 10 | 0.11
10 | O=C(O)c1cc(-c2ccccc2-c2csc(-c3ccccc3)n2)ccc1F [Example 18, 4-Fluoro-2′-(2-phenylthiazol-4-yl)biphenyl-3-carboxylic Acid] | > 10 | > 30 | > 10 | 
11 | O=C1CC(c2ccnc(Cl)c2)=Nc2ccc(-c3ccccc3F)cc2N1 [Example 187, 4-(2-Chloropyridin-4-yl)-8-(2-fluorophenyl)-1,3-dihydro-2H-benzo[b][1,4]diazepin-2-one] | 0.98 |  | 0.71 | 
12 | COc1ccc(-n2nc(-c3cccc(-c4cccc(C(=O)O)c4)c3)nc2-c2ccccc2)cc1 [Example 55, 3′-(1-(4-Methoxyphenyl)-5-phenyl-1H-1,2,4-triazol-3-yl)-[1,1′-biphenyl]-3-carboxylic Acid] | > 10 |  | 2.96 | 6.58
13 | O=C1CC(c2ccnc(Cl)c2)=Nc2ccc(-c3cccnc3F)cc2N1 [Example 188, 4-(2-Chloropyridin-4-yl)-8-(2-fluoropyridin-3-yl)-1,3-dihydro-2H-benzo[b][1,4]diazepin-2-one] | > 10 |  | 1.7 | 
14 | Cc1ccc(-c2cc(C(F)(F)F)nc(-c3cccc(-c4ccc(F)c(C(=O)O)c4)c3)n2)s1 [Example 112, 4-Fluoro-3′-(4-(5-methylthiophen-2-yl)-6-(trifluoromethyl)pyrimidin-2-yl)biphenyl-3-carboxylic Acid] | 3.19 | 0.75 | 3.14 | 
15 | Cc1cc2c(cc1C(F)(F)F)NC(=O)CC(c1cccc(Oc3cc(F)cc(F)c3)c1)=N2 [Example 146, 4-(3-(3,5-difluorophenoxy)phenyl)-7-methyl-8-(trifluoromethyl)-1H-benzo[b][1,4]diazepin-2(3H)-one] | > 10 | > 10 | > 10 | 
16 | Cc1noc(C)c1-c1cc(C(F)(F)F)nc(-c2cccc(-c3ccc(F)c(C(=O)O)c3)c2)n1 [Example 111, 3′-(4-(3,5-Dimethylisoxazol-4-yl)-6-(trifluoromethyl)pyrimidin-2-yl)-4-fluorobiphenyl-3-carboxylic Acid] | > 10 | > 10 | > 10 | 
17 | O=C(O)c1cc(-c2cccc(-c3nc(-c4nccs4)cc(C(F)(F)F)n3)c2)ccc1F [Example 109, 4-Fluoro-3′-(4-(thiazol-2-yl)-6-(trifluoromethyl)pyrimidin-2-yl)biphenyl-3-carboxylic Acid] | 1.34 | 0.297 | 2.13 | 
18 | O=C(O)c1cc(-c2cccc(-c3nc(-c4ccco4)cc(C(F)(F)F)n3)c2)ccc1F [Example 88, 4-Fluoro-3′-(4-(furan-2-yl)-6-(trifluoromethyl)pyrimidin-2-yl)biphenyl-3-carboxylic Acid] | 0.68 | 0.34 | 1.13 | 
19 | Cc1cc(-c2ccoc2)nc(-c2cccc(-c3ccc(F)c(C(=O)O)c3)c2)n1 [Example 117, 4-Fluoro-3′-(4-(furan-3-yl)-6-methylpyrimidin-2-yl)biphenyl-3-carboxylic acid] | 0.08 | 0.07 | 0.28 | 
20 | O=C(O)c1cc(-c2cccc(-c3cnc(-c4ccccc4)s3)c2)ccc1F [Example 3, 4-Fluoro-3′-(2-phenylthiazol-5-yl)biphenyl-3-carboxylic Acid] | > 30 | > 10 | > 10 | 
21 | CCOc1ccc(-c2ccc3c(c2)NC(=O)CC(c2ccnc(Cl)c2)=N3)cc1 [Example 192, 4-(2-Chloropyridin-4-yl)-8-(4-ethoxyphenyl)-1,3-dihydro-2H-benzo[b][1,4]diazepin-2-one] | > 10 |  | > 10 | 
22 | O=C(O)c1cccc(-c2cccc(-c3nc(-c4cccs4)n(-c4ccccc4)n3)c2)c1 [Example 53, 3′-(1-Phenyl-5-(thiophen-2-yl)-1H-1,2,4-triazol-3-yl)-[1,1′-biphenyl]-3-carboxylic Acid] | > 10 |  | 4.29 | 3.67
23 | Cc1cc(-c2cccc(C3CC(=O)Nc4cc(NC(=O)OCc5ccccc5)ccc4N3)c2)cc(C)n1 (racemic) [Example 162, Benzyl (2-(3-(2,6-dimethylpyridin-4-yl)phenyl)-4-oxo-2,3,4,5-tetrahydro-1H-benzo[b][1,4]diazepin-7-yl)carbamate] | > 10 |  | > 10 | 5.36
24 | O=C(O)c1cc(-c2cccc(-c3nc(-c4ccc(Cl)cc4)cc(C(F)(F)F)n3)c2)ccc1F [Example 98, 3′-(4-(4-Chlorophenyl)-6-(trifluoromethyl)pyrimidin-2-yl)-4-fluorobiphenyl-3-carboxylic Acid] | 2.87 | 0.35 | 2.47 | 
